# Test results: ChEMBL document CHEMBL3259522, “Synthesis and biological evaluation of some 2-(3,5-dimethyl-1H-pyrazol-1-yl)-1-arylethanones: antibacterial, DNA photocleavage, and anticancer activities” (2014)
# Active and inactive are the calls of the source. The calls are words filed in the database; no cut-off is given here.
# Key:
# Pseudomonas aeruginosa [1] = experiment: Antibacterial activity against Pseudomonas aeruginosa assessed as diameter of growth inhibition zone after 24 hrs by two fold serial dilution method; format: functional
# Escherichia coli [2] = experiment: Antibacterial activity against Escherichia coli assessed as diameter of growth inhibition zone after 24 hrs by two fold serial dilution method; format: functional
# Klebsiella pneumoniae [3] = experiment: Antibacterial activity against Klebsiella pneumoniae assessed as diameter of growth inhibition zone after 24 hrs by two fold serial dilution method; format: functional
# Staphylococcus aureus [4] = experiment: Antibacterial activity against Staphylococcus aureus assessed as diameter of growth inhibition zone after 24 hrs by two fold serial dilution method; format: functional
# Enterococcus [5] = experiment: Antibacterial activity against Enterococcus assessed as diameter of growth inhibition zone after 24 hrs by two fold serial dilution method; format: functional
# Pseudomonas aeruginosa [6] = experiment: Antibacterial activity against Pseudomonas aeruginosa assessed as growth inhibition after 24 hrs by two fold serial dilution method; format: functional
# Escherichia coli [7] = experiment: Antibacterial activity against Escherichia coli assessed as growth inhibition after 24 hrs by two fold serial dilution method; format: functional
# Klebsiella pneumoniae [8] = experiment: Antibacterial activity against Klebsiella pneumoniae assessed as growth inhibition after 24 hrs by two fold serial dilution method; format: functional
# Staphylococcus aureus [9] = experiment: Antibacterial activity against Staphylococcus aureus assessed as growth inhibition after 24 hrs by two fold serial dilution method; format: functional
# Enterococcus [10] = experiment: Antibacterial activity against Enterococcus assessed as growth inhibition after 24 hrs by two fold serial dilution method; format: functional
# [11] = Induction of DNA degradation in supercoiled plasmid DNA (unknown origin) by agarose gel electrophoresis in absence of UV light
# [12] = Induction of DNA degradation in open circular plasmid DNA (unknown origin) by agarose gel electrophoresis in absence of UV light
# HCT-116 [13] = experiment: Anticancer activity against human HCT116 cells assessed as cell viability at 10 uM after 48 hrs by MTT assay; format: functional; settings: HCT-116, 48 h, read-out: Activity
# HCT-116 [14] = experiment: Anticancer activity against human HCT116 cells assessed as cell viability at 25 uM after 48 hrs by MTT assay; format: functional; settings: HCT-116, 48 h, read-out: Activity
# HCT-116 [15] = experiment: Anticancer activity against human HCT116 cells assessed as cell viability at 50 uM after 48 hrs by MTT assay; format: functional; settings: HCT-116, 48 h, read-out: Activity
# SK-OV-3 = experiment: Anticancer activity against human SKOV3 cells assessed as cell viability after 72 hrs by MTT assay; format: functional, cell-based
# HCT-116 [16] = experiment: Anticancer activity against human HCT116 cells assessed as cell viability after 72 hrs by MTT assay; format: functional, cell-based
# HT-29 [17] = experiment: Anticancer activity against human HT-29 cells assessed as cell viability after 72 hrs by MTT assay; format: functional, cell-based
# DU-145 [18] = experiment: Anticancer activity against human DU145 cells assessed as cell viability after 72 hrs by MTT assay; format: functional, cell-based
# A549 = experiment: Anticancer activity against human A549 cells assessed as cell viability after 72 hrs by MTT assay; format: functional, cell-based
# Escherichia coli [19] = experiment: Antibacterial activity against Escherichia coli assessed as growth inhibition after 24 hrs by two fold serial dilution method relative to ampicillin; format: functional; design: scale not given: the % may be the effect or the level left
# Staphylococcus aureus [20] = experiment: Antibacterial activity against Staphylococcus aureus assessed as growth inhibition after 24 hrs by two fold serial dilution method relative to ampicillin; format: functional; design: scale not given: the % may be the effect or the level left
# Pseudomonas aeruginosa [21] = experiment: Antibacterial activity against Pseudomonas aeruginosa assessed as growth inhibition after 24 hrs by two fold serial dilution method relative to ampicillin; format: functional; design: scale not given: the % may be the effect or the level left
# Enterococcus [22] = experiment: Antibacterial activity against Enterococcus assessed as growth inhibition after 24 hrs by two fold serial dilution method relative to ampicillin; format: functional; design: scale not given: the % may be the effect or the level left
# [23] = Induction of DNA photocleavage in supercoiled plasmid DNA (unknown origin) at 60 ug by agarose gel electrophoresis in presence of UV light
# [24] = Induction of DNA photocleavage in open circular plasmid DNA (unknown origin) at 60 ug by agarose gel electrophoresis in presence of UV light
# [25] = Induction of DNA photocleavage in supercoiled plasmid DNA (unknown origin) at 30 ug by agarose gel electrophoresis in presence of UV light
# [26] = Induction of DNA photocleavage in open circular plasmid DNA (unknown origin) at 30 ug by agarose gel electrophoresis in presence of UV light
# [27] = Induction of DNA photocleavage in supercoiled plasmid DNA (unknown origin) at 15 ug by agarose gel electrophoresis in presence of UV light
# [28] = Induction of DNA photocleavage in open circular plasmid DNA (unknown origin) at 15 ug by agarose gel electrophoresis in presence of UV light
# HCT-116 [29] = experiment: Anticancer activity against human HCT116 cells assessed as cell viability after 48 hrs by MTT assay; format: functional, cell-based
# [30] = Induction of DNA photocleavage in supercoiled plasmid DNA (unknown origin) at 5 ug by agarose gel electrophoresis in presence of UV light
# [31] = Induction of DNA photocleavage in open circular plasmid DNA (unknown origin) at 5 ug by agarose gel electrophoresis in presence of UV light
# [32] = Induction of DNA photocleavage in supercoiled plasmid DNA (unknown origin) at 2.5 ug by agarose gel electrophoresis in presence of UV light
# [33] = Induction of DNA photocleavage in open circular plasmid DNA (unknown origin) at 2.5 ug by agarose gel electrophoresis in presence of UV light
# [34] = Induction of DNA photocleavage in supercoiled plasmid DNA (unknown origin) at 1 ug by agarose gel electrophoresis in presence of UV light
# [35] = Induction of DNA photocleavage in open circular plasmid DNA (unknown origin) at 1 ug by agarose gel electrophoresis in presence of UV light
# HT-29 [36] = experiment: Anticancer activity against human HT-29 cells assessed as cell viability at 50 uM after 72 hrs by MTT assay; format: functional, cell-based
# DU-145 [37] = experiment: Anticancer activity against human DU145 cells assessed as cell viability at 50 uM after 72 hrs by MTT assay; format: functional, cell-based
SMILES,diameter of the inhibition zone (DIZ) (Pseudomonas aeruginosa [1]) [mm],diameter of the inhibition zone (DIZ) (Escherichia coli [2]) [mm],diameter of the inhibition zone (DIZ) (Klebsiella pneumoniae [3]) [mm],diameter of the inhibition zone (DIZ) (Staphylococcus aureus [4]) [mm],diameter of the inhibition zone (DIZ) (Enterococcus [5]) [mm],MIC (Pseudomonas aeruginosa [6]) [µg/mL],MIC (Escherichia coli [7]) [µg/mL],MIC (Klebsiella pneumoniae [8]) [µg/mL],MIC (Staphylococcus aureus [9]) [µg/mL],MIC (Enterococcus [10]) [µg/mL],Activity [11],Activity [12],viability at 10 µM (HCT-116 [13]) [%],viability at 25 µM (HCT-116 [14]) [%],viability at 50 µM (HCT-116 [15]) [%],Activity (SK-OV-3),Activity [23],Activity [24],Activity [25],Activity (HCT-116 [29]),also measured
CC1(C)S[C@@H]2[C@H](NC(=O)[C@H](N)c3ccccc3)C(=O)N2[C@H]1C(=O)O [AMPICILLIN],14,16,13,16,18,8,8,2,2,2,–,–,–,–,–,–,–,–,–,–,–
Cc1cc(C)n(CC(=O)c2ccc3ccccc3c2)n1,14,12,11,10,15,64,16,64,8,16,inactive,inactive,56.8,52.6,36.5,inactive,–,–,–,–,Activity (HCT-116 [16]): Active; Activity (HT-29 [17]): Active; Activity (DU-145 [18]): Active; Activity (A549): Active; Activity (Escherichia coli [19]): 50%; Activity (Staphylococcus aureus [20]): 25%; Activity (Pseudomonas aeruginosa [21]): 12.5%; Activity (Enterococcus [22]): 12.5%
Cc1cc(C)n(CC(=O)c2ccc(F)cc2)n1,11,15,9,11,15,256,64,256,256,64,inactive,inactive,–,–,–,–,Active,Active,Active,inactive,Activity [26]: Active; Activity [27]: Active; Activity [28]: Active; Activity (Escherichia coli [19]): 12.5%; Activity (Pseudomonas aeruginosa [21]): 12.5%
Cc1cc(C)n(CC(=O)c2ccc(Cl)cc2)n1,–,14,–,12,12,–,256,–,256,512,inactive,inactive,–,–,–,–,–,–,–,inactive,–
Cc1cc(C)n(CC(=O)c2ccc(Br)cc2)n1,–,14,–,14,12,–,256,–,32,512,inactive,inactive,62.4,55.9,47.4,inactive,Active,Active,Active,–,Activity [26]: Active; Activity [27]: Active; Activity [28]: Active; Activity [30]: Active; Activity [31]: Active; Activity [32]: Active; Activity [33]: Active; Activity [34]: Active; Activity [35]: Active; Activity (HT-29 [36]): inactive; Activity (DU-145 [37]): inactive; Activity (Staphylococcus aureus [20]): 6.25%
Cc1cc(C)n(CC(=O)c2cccc3ccccc23)n1,–,–,–,–,12,–,–,–,–,256,inactive,inactive,73.4,60.8,34.6,inactive,Active,Active,–,–,Activity (HT-29 [36]): inactive; Activity (DU-145 [37]): inactive; Activity (A549): Active
Cc1cc(C)n(CC(=O)c2cccc(Cl)c2)n1,–,10,–,–,10,–,512,–,–,512,inactive,inactive,–,–,–,–,–,–,–,inactive,–
Cc1cc(C)n(CC(=O)c2ccc(F)cc2F)n1,–,9,–,10,10,–,512,–,256,512,inactive,inactive,–,–,–,–,Active,Active,Active,inactive,Activity [26]: Active; Activity [27]: inactive; Activity [28]: inactive; Activity [30]: inactive; Activity [31]: inactive; Activity [32]: inactive; Activity [33]: inactive; Activity [34]: inactive; Activity [35]: inactive
Cc1cc(C)n(CC(=O)c2ccc([N+](=O)[O-])cc2)n1,–,11,–,13,14,–,256,–,128,256,inactive,inactive,–,–,–,–,Active,Active,Active,inactive,Activity [26]: Active; Activity [27]: Active; Activity [28]: Active; Activity [30]: Active; Activity [31]: Active; Activity [32]: Active; Activity [33]: Active; Activity [34]: Active; Activity [35]: Active
Cc1cc(C)n(CC(=O)c2ccccc2F)n1,11,11,–,10,10,256,256,–,256,256,inactive,inactive,–,–,–,–,–,–,–,inactive,–
Cc1ccc(C(=O)Cn2nc(C)cc2C)cc1,–,11,–,11,15,–,512,–,256,64,inactive,inactive,–,–,–,–,–,–,–,inactive,–
Cc1cc(C)n(CC(=O)c2ccccc2)n1,13,11,10,10,13,64,512,64,512,512,inactive,inactive,81.4,55.4,52.4,inactive,–,–,–,–,Activity (HT-29 [36]): inactive; Activity (DU-145 [37]): inactive; Activity (Escherichia coli [19]): 12.5%; Activity (Pseudomonas aeruginosa [21]): 12.5%
